Measured values as given in patent US20250223281A1, “ANTIDIABETIC COMPOUNDS AND COMPOSITIONS” (REZUBIO PHARMACEUTICALS CO., LTD, priority 2022, published 2025).

Target: T1, GPR40 (Homo sapiens, UniProt O14842)
T1 construct: expressed in transfected cells; host or cells: HEK293 cells stably expressing GPR40 (Hygromycin selection)
Assay: IP1 accumulation assay in HEK293 cells stably expressing GPR40
Format: cell-based
Method in brief: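 HEK293 cells stably expressing human GPR40 were incubated with compounds (10-point, 3-fold dilution series) for 2 h at 37 °C, then IP1 was detected by HTRF (665/615 nm ratio). Effect was normalised to DMSO blank and AMG-1638 as 100%, and EC50 was derived from dose curves.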

[1] = IP1 accumulation, HEK293 cells stably expressing GPR40, 2 hours at 37° C., % effect relative to AMG-1638, table of Biological Example 1
[2] = Tables A-1a to A-7b (structure-property relationship), obtained by methods of Biological Example 1
[3] = Table A-8 (additional examples), obtained by methods of Biological Example 1

T1 sequence (O14842 whole entry): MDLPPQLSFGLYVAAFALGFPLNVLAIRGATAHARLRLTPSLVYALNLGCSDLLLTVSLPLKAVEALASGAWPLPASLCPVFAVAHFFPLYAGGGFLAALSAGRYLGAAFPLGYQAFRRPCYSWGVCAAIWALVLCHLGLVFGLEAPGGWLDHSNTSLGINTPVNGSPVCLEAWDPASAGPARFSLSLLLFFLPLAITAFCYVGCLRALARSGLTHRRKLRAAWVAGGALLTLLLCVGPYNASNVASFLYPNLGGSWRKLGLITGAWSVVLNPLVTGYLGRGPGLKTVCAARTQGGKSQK

Structure (SMILES) | EC50 [1] [nM] | EC50 [2] [nM] | EC50 [3] [nM]
COc1ccc(F)c(-c2ccc(COc3cccc([C@@H](CC(=O)O)C4CC4)c3)cc2CC(C)(C)Cn2cc(CCCCCCCCCCCCCCC(=O)NCCCN(CC(=O)O)CC(=O)O)nn2)c1 [Example 108] | 312 | – | –
COc1ccc(F)c(-c2ccc(COc3cccc([C@@H](CC(=O)O)C4CC4)c3)cc2CC(C)(C)Cn2cc(CCCCCCCCCCCCCCC(=O)NCCC[N+](C)(CC(=O)O)CC(=O)O)nn2)c1 [Example 109] | > 1000 | – | –
COc1ccc(C(=O)N(CC(C)(C)CCn2cc(CCCCCCCCC(=O)NCCN(CCC(=O)NCCN)CCC(=O)NCCN)nn2)c2cccc(C)n2)c(N2CCC(COc3cc([C@@H](CC(=O)O)C4CC4)ccn3)CC2)c1 [Example 110] | 618 | 618 | –
COc1ccc(C(=O)N(CC(C)(C)CCn2cc(CCCCCCCCC(=O)NCC[N+](C)(CCC(=O)NCCN)CCC(=O)NCCN)nn2)c2cccc(C)n2)c(N2CCC(COc3cc([C@@H](CC(=O)O)C4CC4)ccn3)CC2)c1 [Example 111] | 307 | 307 | –
COc1ccc(C(=O)N(CC(C)(C)CCn2cc(CCCCCCCCCCC(=O)NCCN(CCC(=O)NCCN)CCC(=O)NCCN)nn2)c2cccc(C)n2)c(N2CCC(COc3cc([C@@H](CC(=O)O)C4CC4)ccn3)CC2)c1 [Example 112] | 14.9 | 14.9 | –
COc1ccc(C(=O)N(CC(C)(C)CCn2cc(CCCCCCCCCCC(=O)NCC[N+](C)(CCC(=O)NCCN)CCC(=O)NCCN)nn2)c2cccc(C)n2)c(N2CCC(COc3cc([C@@H](CC(=O)O)C4CC4)ccn3)CC2)c1 [Example 113] | 6.27 | 6.27 | –
COc1ccc(C(=O)N(CC(C)(C)CCn2cc(CCCCCCCCCCCCC(=O)NCCN(CCC(=O)NCCN)CCC(=O)NCCN)nn2)c2cccc(C)n2)c(N2CCC(COc3cc([C@@H](CC(=O)O)C4CC4)ccn3)CC2)c1 [Example 114] | 0.42 | 0.42 | 0.42
COc1ccc(C(=O)N(CC(C)(C)CCn2cc(CCCCCCCCCCCCC(=O)NCC[N+](C)(CCC(=O)NCCN)CCC(=O)NCCN)nn2)c2cccc(C)n2)c(N2CCC(COc3cc([C@@H](CC(=O)O)C4CC4)ccn3)CC2)c1 [Example 115] | 0.51 | 0.51 | 0.51
COc1ccc(C(=O)N(CC(C)(C)CCn2cc(CCCCCCCCCCCCCC(=O)NCCN(CCC(=O)NCCN)CCC(=O)NCCN)nn2)c2cccc(C)n2)c(N2CCC(COc3cc([C@@H](CC(=O)O)C4CC4)ccn3)CC2)c1 [Example 116] | 0.21 | 0.21 | –
COc1ccc(C(=O)N(CC(C)(C)CCn2cc(CCCCCCCCCCCCCC(=O)NCC[N+](C)(CCC(=O)NCCN)CCC(=O)NCCN)nn2)c2cccc(C)n2)c(N2CCC(COc3cc([C@@H](CC(=O)O)C4CC4)ccn3)CC2)c1 [Example 117] | 0.29 | 0.29 | –
COc1ccc(C(=O)N(CC(C)(C)CCn2cc(CCCCCCCCCCCCCCC(=O)NCCN(CCC(=O)NCCN)CCC(=O)NCCN)nn2)c2cccc(C)n2)c(N2CCC(COc3cc([C@@H](CC(=O)O)C4CC4)ccn3)CC2)c1 [Example 118] | 0.33 | 0.33 | –
COc1ccc(C(=O)N(CC(C)(C)CCn2cc(CCCCCCCCCCCCCCC(=O)NCC[N+](C)(CCC(=O)NCCN)CCC(=O)NCCN)nn2)c2cccc(C)n2)c(N2CCC(COc3cc([C@@H](CC(=O)O)C4CC4)ccn3)CC2)c1 [Example 119] | 0.1 | 0.1 | –
COc1ccc(F)c(-c2ccc(COc3cccc([C@@H](CC(=O)O)C4CC4)c3)cc2CC(C)(C)Cn2cc(CCCCCCCCCCCC(=O)NCCCN(CC(=O)O)CC(=O)O)nn2)c1 [Example 120] | 1290 | – | –
COc1ccc(F)c(-c2ccc(COc3cccc([C@@H](CC(=O)O)C4CC4)c3)cc2CC(C)(C)Cn2cc(CCCCCCCCCCCCCCCC(=O)NCCCN(CC(=O)O)CC(=O)O)nn2)c1 [Example 121] | 5 | – | –
COc1ccc(F)c(-c2ccc(COc3cccc([C@@H](CC(=O)O)C4CC4)c3)cc2CC(C)(C)Cn2cc(CCCCCCCCCCCC(=O)NCCC[N+](C)(CC(=O)[O-])CC(=O)O)nn2)c1 (stereo partly shown) [Example 122] | 1000 | – | –
COc1ccc(F)c(-c2ccc(COc3cccc([C@@H](CC(=O)O)C4CC4)c3)cc2CC(C)(C)Cn2cc(CCCCCCCCCCCCCCCC(=O)NCCC[N+](C)(CC(=O)[O-])CC(=O)O)nn2)c1 (stereo partly shown) [Example 123] | 32.7 | – | –
COc1ccc(C(=O)N(CC(C)(C)CCn2cc(CCCCCCCCCC(=O)NCCCN(CC(=O)O)CC(=O)O)nn2)c2cccc(C)n2)c(N2CCC(COc3cc([C@@H](CC(=O)O)C4CC4)ccn3)CC2)c1 [Example 124] | 226 | 226 | –
COc1ccc(C(=O)N(CC(C)(C)CCn2cc(CCCCCCCCCC(=O)NCCC[N+](C)(CC(=O)[O-])CC(=O)O)nn2)c2cccc(C)n2)c(N2CCC(COc3cc([C@@H](CC(=O)O)C4CC4)ccn3)CC2)c1 (stereo partly shown) [Example 125] | 617 | 617 | –
COc1ccc(C(=O)N(CC(C)(C)CCn2cc(CCCCCCCCCCCC(=O)NCCCN(CC(=O)O)CC(=O)O)nn2)c2cccc(C)n2)c(N2CCC(COc3cc([C@@H](CC(=O)O)C4CC4)ccn3)CC2)c1 [Example 126] | 5.81 | 5.81 | –
COc1ccc(C(=O)N(CC(C)(C)CCn2cc(CCCCCCCCCCCC(=O)NCCC[N+](C)(CC(=O)[O-])CC(=O)O)nn2)c2cccc(C)n2)c(N2CCC(COc3cc([C@@H](CC(=O)O)C4CC4)ccn3)CC2)c1 (stereo partly shown) [Example 127] | 6.36 | 6.36 | –
COc1ccc(C(=O)N(CC(C)(C)CCn2cc(CCCCCCCCCCCCCC(=O)NCCCN(CC(=O)O)CC(=O)O)nn2)c2cccc(C)n2)c(N2CCC(COc3cc([C@@H](CC(=O)O)C4CC4)ccn3)CC2)c1 [Example 128] | 1.33 | 1.33 | –
COc1ccc(C(=O)N(CC(C)(C)CCn2cc(CCCCCCCCCCCCCC(=O)NCCC[N+](C)(CC(=O)[O-])CC(=O)O)nn2)c2cccc(C)n2)c(N2CCC(COc3cc([C@@H](CC(=O)O)C4CC4)ccn3)CC2)c1 (stereo partly shown) [Example 129] | 0.88 | 0.88 | –
COc1ccc(C(=O)N(CC(C)(C)CCn2cc(CCCCCCCCCCCCCCC(=O)NCCCN(CC(=O)O)CC(=O)O)nn2)c2cccc(C)n2)c(N2CCC(COc3cc([C@@H](CC(=O)O)C4CC4)ccn3)CC2)c1 [Example 130] | 1.25 | 1.25 | –
COc1ccc(C(=O)N(CC(C)(C)CCn2cc(CCCCCCCCCCCCCCC(=O)NCCC[N+](C)(CC(=O)[O-])CC(=O)O)nn2)c2cccc(C)n2)c(N2CCC(COc3cc([C@@H](CC(=O)O)C4CC4)ccn3)CC2)c1 (stereo partly shown) [Example 131] | 0.38 | 0.38 | –
COc1ccc(C(=O)N(CC(C)(C)CCn2cc(CCCCCCCCCCCCCCCCC(=O)NCCCN(CC(=O)O)CC(=O)O)nn2)c2cccc(C)n2)c(N2CCC(COc3cc([C@@H](CC(=O)O)C4CC4)ccn3)CC2)c1 [Example 132] | 0.19 | 0.19 | –
COc1ccc(C(=O)N(CC(C)(C)CCn2cc(CCCCCCCCCCCCCCCCC(=O)NCCC[N+](C)(CC(=O)[O-])CC(=O)O)nn2)c2cccc(C)n2)c(N2CCC(COc3cc([C@@H](CC(=O)O)C4CC4)ccn3)CC2)c1 (stereo partly shown) [Example 133] | 0.08 | 0.08 | –
COc1ccc(F)c(-c2ccc(COc3cccc([C@@H](CC(=O)O)C4CC4)c3)cc2C(C)(C)c2cn(CCCCCCCCCC(=O)NCCN(CCC(=O)NCCN)CCC(=O)NCCN)nn2)c1 [Example 134] | 3600 | – | –
